Assay results: US20050009840A1 (SUGEN, INC., priority 2003, published 2005)

The compounds below were run against T1, Met kinase domain (GST fusion protein) (Homo sapiens, UniProt P08581) (assay: Met transphosphorylation assay (ELISA, poly(glu-tyr) substrate)). Conditions: plain numbers in column Met IC50 (μM) of Table 2; read-out: Met IC50.
T1 construct: Purified GST fusion protein containing the Met kinase domain
Assay type: biochemical
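Note: Cell-free ELISA with plate-bound poly(Glu:Tyr 4:1) phosphorylated by GST-fused Met kinase domain plus ATP and Mn2+, phosphotyrosine detected by anti-phosphotyrosine antibody with HRP and ABTS read-out.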

T1 sequence (P08581 1078-1345 limits assumed): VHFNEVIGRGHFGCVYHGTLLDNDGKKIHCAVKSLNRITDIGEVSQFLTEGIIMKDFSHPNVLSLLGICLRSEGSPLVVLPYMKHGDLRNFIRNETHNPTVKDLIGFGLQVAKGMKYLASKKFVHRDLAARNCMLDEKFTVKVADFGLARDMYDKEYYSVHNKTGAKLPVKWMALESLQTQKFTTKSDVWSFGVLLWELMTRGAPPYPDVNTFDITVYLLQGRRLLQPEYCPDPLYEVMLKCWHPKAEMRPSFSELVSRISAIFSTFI

| SMILES | IC50 [µM] |
| --- | --- |
| CC(Oc1cc(C#CCNC(=O)CN(C)C)cnc1N)c1c(Cl)ccc(F)c1Cl (centres unmarked) [Example I-429, N-(3-{6-Amino-5-[1-(2,6-dichloro-3-fluoro-phenyl)-ethoxy]-pyridin-3-yl}-prop-2-ynyl)-2-dimethylamino-acetamide] | 0.022 |
| CCN(CC)CC(=O)NCC#Cc1cnc(N)c(OC(C)c2c(Cl)ccc(F)c2Cl)c1 (centres unmarked) [Example I-430, N-(3-{6-Amino-5-[1-(2,6-dichloro-3-fluoro-phenyl)-ethoxy]-pyridin-3-yl}-prop-2-ynyl)-2-diethylamino-acetamide] | 0.013 |
| CC(=O)N1CCN(CC(=O)NCC#Cc2cnc(N)c(OC(C)c3c(Cl)ccc(F)c3Cl)c2)CC1 (centres unmarked) [Example I-431, 2-(4-Acetyl-piperazin-1-yl)-N-(3-{6-amino-5-[1-(2,6-dichloro-3-fluoro-phenyl)-ethoxy]pyridin-3-yl}-prop-2-ynyl)-acetamide] | 0.027 |
| Nc1ncc(-c2ccccn2)cc1OCc1c(F)ccc(F)c1Cl [Example I-500, 5′-(2-Chloro-3,6-difluoro-benzyloxy)-[2,3′]bipyridinyl-6′-ylamine] | 1.8 |
| Nc1ncc(-c2ccccn2)cc1OCc1c(Cl)cccc1Cl [Example I-505, 5-′(2,6-Dichloro-benzyloxy)-[2,3′]bipyridinyl-6′-ylamine] | 2.84 |
| CC(Oc1cc(-c2ccc(N)nc2)cnc1N)c1c(Cl)ccc(F)c1Cl (centres unmarked) [Example I-510, 5-[1-(2,6-Dichloro-3-fluoro-phenyl)-ethoxy]-[3,3′]bipyridinyl-6,6′-diamine] | 0.0167 |
| CC(Oc1cc(-c2cc(C(=O)N3CCN(C)CC3)ccn2)cnc1N)c1c(Cl)ccc(F)c1Cl (centres unmarked) [Example I-511, {6′-Amino-5′-[1-(2,6-dichloro-3-fluoro-phenyl)-ethoxy]-[2,3′]bipyridinyl-4-yl}-(4-methyl-piperazin-1-yl)-methanone] | 0.0742 |
| CC(Oc1cc(-c2cccc(C(=O)N3CCN(C)CC3)n2)cnc1N)c1c(Cl)ccc(F)c1Cl (centres unmarked) [Example I-512, {6′-Amino-5′-[1-(2,6-dichloro-3-fluoro-phenyl)-ethoxy]-[2,3′]bipyridinyl-6-yl}-(4-methyl-piperazin-1-yl)-methanone] | 0.0629 |
| CC(Oc1cc(-c2cncc(C(=O)N3CCN(C)CC3)c2)cnc1N)c1c(Cl)ccc(F)c1Cl (centres unmarked) [Example I-513, {6′-Amino-5′-[1-(2,6-dichloro-3-fluoro-phenyl)-ethoxy]-[3,3′]bipyridinyl-5-yl}-(4-methyl-piperazin-1-yl)-methanone] | 0.034 |
| CC(Oc1cc(-c2ccc(C(=O)N3CCN(C)CC3)nc2)cnc1N)c1c(Cl)ccc(F)c1Cl (centres unmarked) [Example I-514, {6′-Amino-5′-[1-(2,6-dichloro-3-fluoro-phenyl)-ethoxy]-[3,3′]bipyridinyl-6-yl}-(4-methyl-piperazin-1-yl)-methanone] | 0.0213 |
| CC(Oc1cc(-c2ccnc(C(=O)N3CCN(C)CC3)c2)cnc1N)c1c(Cl)ccc(F)c1Cl (centres unmarked) [Example I-515, {6-Amino-5-[1-(2,6-dichloro-3-fluoro-phenyl)-ethoxy]-[3,4′]bipyridinyl-2′-yl}-(4-methyl-piperazin-1-yl)-methanone] | 0.0387 |
| CC(Oc1cc(-c2ccc(N)nc2)cnc1N)c1c(F)ccc(F)c1Cl (centres unmarked) [Example I-516, 5-[1-(2-Chloro-3,6-difluoro-phenyl)-ethoxy]-[3,3′]bipyridinyl-6,6′-diamine] | 0.0393 |
| CC(Oc1cc(-c2cc(C(=O)N3CCN(C)CC3)ccn2)cnc1N)c1c(F)ccc(F)c1Cl (centres unmarked) [Example I-518, {6′-Amino-5′-[1-(2-chloro-3,6-difluoro-phenyl)-ethoxy]-[2,3′]bipyridinyl-4-yl}-(4-methyl-piperazin-1-yl)-methanone] | 0.209 |
| CC(Oc1cc(-c2cccc(C(=O)N3CCN(C)CC3)n2)cnc1N)c1c(F)ccc(F)c1Cl (centres unmarked) [Example I-519, {6′-Amino-5′-[1-(2-chloro-3,6-difluoro-phenyl)-ethoxy]-[2,3′]bipyridinyl-6-yl}-(4-methyl-piperazin-1-yl)-methanone] | 0.466 |
| CC(Oc1cc(-c2cncc(C(=O)N3CCN(C)CC3)c2)cnc1N)c1c(F)ccc(F)c1Cl (centres unmarked) [Example I-520, {6′-Amino-5′-[1-(2-chloro-3,6-difluoro-phenyl)-ethoxy]-[3,3′]bipyridinyl-5-yl}-(4-methyl-piperazin-1-yl)-methanone] | 0.134 |
| CC(Oc1cc(-c2ccc(C(=O)N3CCN(C)CC3)nc2)cnc1N)c1c(F)ccc(F)c1Cl (centres unmarked) [Example I-521, {6′-Amino-5′-[1-(2-chloro-3,6-difluoro-phenyl)-ethoxy]-[3,3′]bipyridinyl-6-yl}-(4-methyl-piperazin-1-yl)-methanone] | 0.0716 |
| CC(Oc1cc(-c2ccnc(C(=O)N3CCN(C)CC3)c2)cnc1N)c1c(F)ccc(F)c1Cl (centres unmarked) [Example I-522] | 0.0626 |
| CC(Oc1cc(-c2cccnc2)cnc1N)c1c(F)ccc(F)c1Cl (centres unmarked) [Example I-525, 5-[1-(2-Chloro-3,6-difluoro-phenyl)-ethoxy]-[3,3′]bipyridinyl-6-ylamine] | 0.0777 |
| CC(Oc1cc(-c2ccc(C(=O)N3CCN(C)CC3)cn2)cnc1N)c1c(Cl)ccc(F)c1Cl (centres unmarked) [Example I-527, {6′-Amino-5′-[1-(2,6-dichloro-3-fluoro-phenyl)-ethoxy]-[2,3′]bipyridinyl-5-yl}(4-methyl-piperazin-1-yl)-methanone] | 0.0385 |
| CC(Oc1cc(OCc2ccccc2)cnc1N)c1c(F)ccc(F)c1Cl (centres unmarked) [Example I-529, 5-Benzyloxy-3-[1-(2-chloro-3,6-difluoro-phenyl)-ethoxy]-pyridin-2-ylamine] | 2.58 |
| CCC(CC)COc1cnc(N)c(OC(C)c2c(F)ccc(F)c2Cl)c1 (centres unmarked) [Example I-530, 3-[1-(2-Chloro-3,6-difluoro-phenyl)-ethoxy]-5-(2-ethyl-butoxy)-pyridin-2-ylamine] | 4.08 |
| CC(C)CCOc1cnc(N)c(OC(C)c2c(F)ccc(F)c2Cl)c1 (centres unmarked) [Example I-531, 3-[1-(2-Chloro-3,6-difluoro-phenyl)-ethoxy]-5-(3-methyl-butoxy)-pyridin-2-ylamine] | 2.4 |

Second part, the compound after the results:

| IC50 [µM] | SMILES |
| --- | --- |
| > 20 | Nc1ncc(-c2ccccn2)cc1OCc1ccccc1 [Example I-488, 5′-Benzyloxy-[2,3′]bipyridinyl-6′-ylamine] |
| > 20 | Nc1ncc(-c2cncnc2)cc1OCc1ccccc1 [Example I-490, 3-Benzyloxy-5-pyrimidin-5-yl-pyridin-2-ylamine] |
| > 20 | Nc1ccc(-c2cnc(N)c(OCc3ccccc3)c2)cn1 [Example I-491, 5-Benzyloxy-[3,3′]bipyridinyl-6,6′-diamine] |
| 8.24 | Nc1ncc(-c2ccccn2)cc1OCc1ccccc1Cl [Example I-492, 5′-(2-Chloro-benzyloxy)-[2,3′]bipyridinyl-6′-ylamine] |
| 4.6 | Nc1ncc(-c2cccnc2)cc1OCc1ccccc1Cl [Example I-493] |
| 19.3 | Nc1ncc(-c2cncnc2)cc1OCc1ccccc1Cl [Example I-494, 3-(2-Chloro-benzyloxy)-5-pyrimidin-5-yl-pyridin-2-ylamine] |
| 4.31 | Nc1ccc(-c2cnc(N)c(OCc3ccccc3Cl)c2)cn1 [Example I-495, 5-(2-Chloro-benzyloxy)-[3,3′]bipyridinyl-6,6′-diamine] |
| 14 | Nc1ncc(-c2ccccn2)cc1OCc1ccc(Cl)cc1 [Example I-496, 5′-(4-Chloro-benzyloxy)-[2,3′]bipyridinyl-6′-ylamine] |
| 14.1 | Nc1ncc(-c2cccnc2)cc1OCc1ccc(Cl)cc1 [Example I-497, 5-(4-Chloro-benzyloxy)-[3,3′]bipyridinyl-6-ylamine] |
| > 20 | Nc1ncc(-c2cncnc2)cc1OCc1ccc(Cl)cc1 [Example I-498, 3-(4-Chloro-benzyloxy)-5-pyrimidin-5-yl-pyridin-2-ylamine] |
| > 20 | Nc1ccc(-c2cnc(N)c(OCc3ccc(Cl)cc3)c2)cn1 [Example I-499, 5-(4-Chloro-benzyloxy)-[3.3═]bipyridinyl-6,6′-diamine] |
| 0.211 | Nc1ncc(-c2ccncc2)cc1OCc1c(F)ccc(F)c1Cl [Example I-502, 5-(2-Chloro-3,6-difluoro-benzyloxy)-[3,4′]bipyridinyl-6-ylamine] |
| 2.15 | Nc1ncc(-c2cncnc2)cc1OCc1c(F)ccc(F)c1Cl [Example I-503, 3-(2-Chloro-3,6-dlfluoro-benzyloxy)-5-pyrimidin-5-yl-pyridin-2-ylamine] |
| 0.209 | Nc1ccc(-c2cnc(N)c(OCc3c(F)ccc(F)c3Cl)c2)cn1 [Example I-504, 5-(2-Chloro-3,6-difluoro-benzyloxy)-[3,3′]bipyridinyl-6,6′-diamine] |
| 2.71 | Nc1ncc(-c2cccnc2)cc1OCc1c(Cl)cccc1Cl [Example I-506, 5-(2,6-Dichloro-benzyloxy)-[3,3′]bipyridinyl-6-ylamine] |
| 1.3 | Nc1ncc(-c2ccncc2)cc1OCc1c(Cl)cccc1Cl [Example I-507, 5-(2,6-Dichloro-benzyloxy)-[3,4′]bipyridinyl-6-ylamine] |
| 10.3 | Nc1ncc(-c2cncnc2)cc1OCc1c(Cl)cccc1Cl [Example I-508, 3-(2,6-Dichloro-benzyloxy)-pyrimidin-5-yl-pyridin-2-ylamine] |
| 0.578 | Nc1ccc(-c2cnc(N)c(OCc3c(Cl)cccc3Cl)c2)cn1 [Example I-509, 5-(2,6-Dichloro-benzyloxy)-[3,3′]bipyridinyl-6,6′-diamine] |
| 0.0677 | CC(Oc1cc(-c2ccccn2)cnc1N)c1c(Cl)ccc(F)c1Cl (centres unmarked) [Example I-523, 5′-[1-(2,6-Dichloro-3-fluoro-phenyl)-ethoxy]-[2,3′]bipyridinyl-6′-ylamine] |
| 0.612 | CC(Oc1cc(-c2ccccn2)cnc1N)c1c(F)ccc(F)c1Cl (centres unmarked) [Example I-524, 5′-[1-(2-Chloro-3,6-difluoro-phenyl)-ethoxy]-[2,3′]bipyridinyl-6′-ylamine] |
| 0.552 | CC(Oc1cc(-c2cncnc2)cnc1N)c1c(F)ccc(F)c1Cl (centres unmarked) [Example I-526, 3-[1-(2-Chloro-3,6-difluoro-phenyl)-ethoxy]-5-pyrimidin-5-yl-pyridin-2-ylamine] |
| 0.0659 | CC(Oc1cc(-c2ccncc2)cnc1N)c1c(F)ccc(F)c1Cl (centres unmarked) [Example I-528, 5-[1-(2-Chloro-3,6-difluoro-phenyl)-ethoxy]-[3,4′]bipyridinyl-6-ylamine] |
